# Patent US9573970B2, “4-{4-[(1E)-4-(2,9-diazaspiro[5.5]undec-2-yl)but-1-en-1-yl]-2-methylbenzyl}-5-(propan-2-yl)-1H-pyrazol-3-yl beta-D glucopyranoside acetate” (Eli Lilly and Company, priority 2013, dated 2017)
# System: male rats with STZ-induced diabetes
# Assay: Mixed meal tolerance test (MTT) in male rats with streptozotocin induced diabetes
# Format: in vivo, rat
# Conditions: 60 mg/kg oral, mean ± SE
# Experimental: The test compound is formulated by adding a vehicle of 1% hydroxyethylcellulose (HEC), 0.25% Tween® 80 w/antifoam 0.05% to preweighed test compound to make a 2.5 mg/ml solution. The mixture is probe sonicated for approximately 30 seconds. The resulting solution is used as a stock solution, from which the lower concentration dose solutions are prepared by dilution with the vehicle. STZ, 45 mg/kg, is formulated by dissolving in 0.1M Citrate buffer in 3 ml aliquots and stored in the dark on ice, when not being administered. A high fat content mixed meal (Bio-Serv® Rodent Diet F3282 High Fat) comprising Fat Calories (60%), Carbohydrate Calories (26%) and Protein Calories (15%) is utilized. Single housed Sprague Dawley rats are allowed to acclimate for a period of 3 to 7 days.
# In an effort to ensure that the animals have not recently fed, STZ is administered in the afternoon, approximately six hours into the light cycle (lights on 6 am, lights off 6 pm). The animals are anesthetized with isoflurane and STZ is delivered via tail vein injection. Once animals regain consciousness, they are returned to housing and allowed to recover for 7 days.
# On the two days immediately prior to the meal tolerance test (MTT) all rats are given a small amount (2-4 g) of the F3282 diet, so they became acclimated to it prior to receiving it during the experiment. On the evening before the experiment, the rats are moved into clean cages and their food is removed. The following morning animals are weighed and a blood sample is taken by tail snip for glucose measurement (Abbott AlphaTRAK™ glucometers: code 29) Animals are grouped n=6 based on fasted body weight and glucose. Thirty minutes after the test compound is orally administered, two glucose measurements are collected. Then a five gram pellet of Bio-Serv® diet 3282 is given. After 20 minutes remaining food is taken away and weighed. Blood samples are taken at 20, 40, 60 and 120 minutes for glucose measurement.
smiles,measurement,setting,value
"C[C@H]1O[C@H](O[C@H]2[C@H](O)[C@@H](O)[C@@H](O[C@H]3[C@H](O)[C@@H](O)C(O)O[C@@H]3CO)O[C@@H]2CO)[C@H](O)[C@@H](O)[C@@H]1N[C@H]1C=C(CO)[C@@H](O)[C@H](O)[C@H]1O (stereo partly drawn) [Acarbose, reference compound]","Glucose value, 0 min.","30 min after compound, before meal",124 ± 16.9 mg/dL
same,Baseline Adjusted AUC (glucose),MTT,23877 ± 4649
same,"Glucose value, 20 min.",,181 ± 22.8 mg/dL
same,"Glucose value, 40 min.",,301.3 ± 51.2 mg/dL
same,"Glucose value, 60 min.",,371.5 ± 63.9 mg/dL
same,"Glucose value, 120 min.",,433.7 ± 83 mg/dL
